pIC50: −log10 of the molar value.
Columns and labels:
[1] = test system: SKBR3 (PI3Kα wild type) cells; assay: CellTiter-Glo 2.0 luminescent cell viability assay, 72 hours, SKBR3 cells; format: cell-based; settings: Homo sapiens, SK-BR-3, 72 h, SKBR3 (PI3Kα wild type) cells, CellTiter-Glo, approximately 72 hours; read-out: SKBR3 (WT) Viability IC50
Experimental: (§1) The ability of a compound of Formula (I) to decrease the viability of cells was measured using CellTiter-Glo 2.0 (CTG) Luminescent Cell Viability Assay (#G9241) obtained from Promega (Madison, WI).
To prepare assay plates for viability assays, cells were trypsinized, resuspended in fresh media, and viable cells were counted utilizing trypan blue exclusion.
(§2) Assay day 1, cells were dosed using an Echo Liquid Handler (Beckman Coulter) with compounds at a 10 um starting concentration and serially diluted (1:4) for a total of 10 concentrations. Cells were incubated for approximately 72 hours with the compounds (solubilized in DMSO) at 37° C. After 72 hours of treatment, cell plates were equilibrated to room temperature before adding 15 μl of CTG to each well, plates were then covered in aluminum foil to protect from light, incubated at room temperature for 30 minutes on a microtiter plate shaker, and luminescence readings were collected using a CLARIOstar microplate reader (BMG Labtech, Germany). Percent of vehicle control values were plotted as log (inhibitor) vs. response-Variable slope (four parameters) for curve fitting and IC50 values were determined using XLfit.

[2] = test system: T47D (PI3Kα H1047R mutant) cells; assay: CellTiter-Glo 2.0 luminescent cell viability assay, 72 hours, T47D cells; format: cell-based; settings: Homo sapiens, T47D, 72 h, T47D (PI3Kα H1047R mutant) cells, CellTiter-Glo, approximately 72 hours; read-out: T47D (H1047R mutant) Viability IC50
Experimental: This Example illustrates that exemplary compounds of the present invention decrease the viability of cells.
as §1
To prepare assay plates for viability assays, cells were trypsinized, resuspended in fresh media, and viable cells were counted utilizing trypan blue exclusion. T47D, SKBR3, or MKN1 cells were seeded at 1000 cells in 30 μl per well in a solid white flat bottom 384 cell culture plate (Perkin Elmer #6007680) and incubated at 37° C. overnight.
as §2

| SMILES | pIC50 [1] | pIC50 [2] |
| --- | --- | --- |
| Cc1cc([C@@H](C)Nc2ccccc2C(=O)O)c2nc(N3CC4C5CCC5C4C3)c(C)c(=O)n2c1 (stereo partly drawn) [Example 11-33, 2-(((1R)-1-(3,7-dimethyl-4-oxo-2-(8-azatricyclo[4.3.0.0^2,5]nonan-8-yl)-4H-pyrido[1,2-a]pyrimidin-9-yl)ethyl)amino)benzoic acid] | < 5.00 | 6.51 |
| Cc1cc([C@@H](C)Nc2ccccc2C(=O)O)c2nc(N3CCN(c4ccccc4)CC3)c(C)c(=O)n2c1 [Example 11-273, (R)-2-((1-(3,7-dimethyl-4-oxo-2-(4-phenylpiperazin-1-yl)-4H-pyrido[1,2-a]pyrimidin-9-yl)ethyl)amino)benzoic acid] | 5.13 | 5.51 |
| C#Cc1ccc(N[C@H](C)c2cc(C)cn3c(=O)cc(N4CCCCC4)nc23)c(C(=O)O)c1 [Example 11-232, (R)-5-ethynyl-2-((1-(7-methyl-4-oxo-2-(piperidin-1-yl)-4H-pyrido[1,2-a]pyrimidin-9-yl)ethyl)amino)benzoic acid] | < 5.00 | 5.48 |
| Cc1cc([C@@H](C)Nc2ccccc2C(=O)O)c2nc(-c3cn(C)cn3)c(C)c(=O)n2c1 [Example 11-234, (R)-2-((1-(3,7-dimethyl-2-(1-methyl-1H-imidazol-4-yl)-4-oxo-4H-pyrido[1,2-a]pyrimidin-9-yl)ethyl)amino)benzoic acid] | < 5.00 | 6.00 |
| Cc1cc([C@@H](C)Nc2ccccc2C(=O)O)c2nc(NCC3CC3)c(C)c(=O)n2c1 [Example 11-207, (R)-2-((1-(2-((cyclopropylmethyl)amino)-3,7-dimethyl-4-oxo-4H-pyrido[1,2-a]pyrimidin-9-yl)ethyl)amino)benzoic acid] | < 5.00 | 6.47 |
| COc1ccccc1-c1cc(=O)n2cc(C)cc(C(C)Nc3ccccc3C(=O)O)c2n1 (stereo not shown) [Example 11-394, 2-((1-(2-(2-methoxyphenyl)-7-methyl-4-oxo-4H-pyrido[1,2-a]pyrimidin-9-yl)ethyl)amino)benzoic acid] | < 5.00 | < 5.00 |
| Cc1cc([C@@H](C)Nc2ccccc2C(=O)O)c2nc(Cl)c(C#N)c(=O)n2c1 [Example 11-243, (R)-2-((1-(2-chloro-3-cyano-7-methyl-4-oxo-4H-pyrido[1,2-a]pyrimidin-9-yl)ethyl)amino)benzoic acid] | < 5.00 | 5.10 |
| Cc1cc([C@@H](C)Nc2ccccc2C(=O)O)c2nc(N3CCN(c4ccc(C(N)=O)cc4)CC3)c(C)c(=O)n2c1 [Example 11-250, (R)-2-((1-(2-(4-(4-carbamoylphenyl)piperazin-1-yl)-3,7-dimethyl-4-oxo-4H-pyrido[1,2-a]pyrimidin-9-yl)ethyl)amino)benzoic acid] | < 5.00 | 6.32 |
| Cc1cc([C@@H](C)Nc2ccccc2C(=O)O)c2nc(N3CCC4(CCO4)CC3)c(C#N)c(=O)n2c1 [Example 11-55, (R)-2-((1-(3-cyano-7-methyl-4-oxo-2-(1-oxa-7-azaspiro[3.5]nonan-7-yl)-4H-pyrido[1,2-a]pyrimidin-9-yl)ethyl)amino)benzoic acid] | < 5.00 | 6.66 |
| Cc1cc([C@@H](C)Nc2ccccc2C(=O)O)c2nc(NCC3CC(F)(F)C3)c(C)c(=O)n2c1 [Example 11-199, (R)-2-((1-(2-(((3,3-difluorocyclobutyl)methyl)amino)-3,7-dimethyl-4-oxo-4H-pyrido[1,2-a]pyrimidin-9-yl)ethyl)amino)benzoic acid] | < 5.00 | 6.30 |
| Cc1cc([C@@H](C)Nc2ccccc2C(=O)O)c2nc(N3CC4(CCC4(F)F)C3)c(C#N)c(=O)n2c1 [Example 11-200, (R)-2-((1-(3-cyano-2-(5,5-difluoro-2-azaspiro[3.3]heptan-2-yl)-7-methyl-4-oxo-4H-pyrido[1,2-a]pyrimidin-9-yl)ethyl)amino)benzoic acid] | < 5.00 | 6.89 |

Source: patent US20260078120A1, “SUBSTITUTED PYRIDOPYRIMIDINONES” (MIRATI THERAPEUTICS, INC., priority 2022, published 2026)
